Results taken from PMC4730408, “Genistein and Glyceollin Effects on ABCC2 (MRP2) and ABCG2 (BCRP) in Caco-2 Cells” (International Journal of Environmental Research and Public …, 2015).

Biological target: MRP2 (ABCC2, multidrug resistance protein 2) (Homo sapiens, UniProt Q92887)
Test: calcein retention (calcein-AM) in Caco-2 cells; CDF transport across Caco-2 monolayers
Type: cell-based

Chain of MRP2 (ABCC2, multidrug resistance protein 2) (Q92887 whole entry): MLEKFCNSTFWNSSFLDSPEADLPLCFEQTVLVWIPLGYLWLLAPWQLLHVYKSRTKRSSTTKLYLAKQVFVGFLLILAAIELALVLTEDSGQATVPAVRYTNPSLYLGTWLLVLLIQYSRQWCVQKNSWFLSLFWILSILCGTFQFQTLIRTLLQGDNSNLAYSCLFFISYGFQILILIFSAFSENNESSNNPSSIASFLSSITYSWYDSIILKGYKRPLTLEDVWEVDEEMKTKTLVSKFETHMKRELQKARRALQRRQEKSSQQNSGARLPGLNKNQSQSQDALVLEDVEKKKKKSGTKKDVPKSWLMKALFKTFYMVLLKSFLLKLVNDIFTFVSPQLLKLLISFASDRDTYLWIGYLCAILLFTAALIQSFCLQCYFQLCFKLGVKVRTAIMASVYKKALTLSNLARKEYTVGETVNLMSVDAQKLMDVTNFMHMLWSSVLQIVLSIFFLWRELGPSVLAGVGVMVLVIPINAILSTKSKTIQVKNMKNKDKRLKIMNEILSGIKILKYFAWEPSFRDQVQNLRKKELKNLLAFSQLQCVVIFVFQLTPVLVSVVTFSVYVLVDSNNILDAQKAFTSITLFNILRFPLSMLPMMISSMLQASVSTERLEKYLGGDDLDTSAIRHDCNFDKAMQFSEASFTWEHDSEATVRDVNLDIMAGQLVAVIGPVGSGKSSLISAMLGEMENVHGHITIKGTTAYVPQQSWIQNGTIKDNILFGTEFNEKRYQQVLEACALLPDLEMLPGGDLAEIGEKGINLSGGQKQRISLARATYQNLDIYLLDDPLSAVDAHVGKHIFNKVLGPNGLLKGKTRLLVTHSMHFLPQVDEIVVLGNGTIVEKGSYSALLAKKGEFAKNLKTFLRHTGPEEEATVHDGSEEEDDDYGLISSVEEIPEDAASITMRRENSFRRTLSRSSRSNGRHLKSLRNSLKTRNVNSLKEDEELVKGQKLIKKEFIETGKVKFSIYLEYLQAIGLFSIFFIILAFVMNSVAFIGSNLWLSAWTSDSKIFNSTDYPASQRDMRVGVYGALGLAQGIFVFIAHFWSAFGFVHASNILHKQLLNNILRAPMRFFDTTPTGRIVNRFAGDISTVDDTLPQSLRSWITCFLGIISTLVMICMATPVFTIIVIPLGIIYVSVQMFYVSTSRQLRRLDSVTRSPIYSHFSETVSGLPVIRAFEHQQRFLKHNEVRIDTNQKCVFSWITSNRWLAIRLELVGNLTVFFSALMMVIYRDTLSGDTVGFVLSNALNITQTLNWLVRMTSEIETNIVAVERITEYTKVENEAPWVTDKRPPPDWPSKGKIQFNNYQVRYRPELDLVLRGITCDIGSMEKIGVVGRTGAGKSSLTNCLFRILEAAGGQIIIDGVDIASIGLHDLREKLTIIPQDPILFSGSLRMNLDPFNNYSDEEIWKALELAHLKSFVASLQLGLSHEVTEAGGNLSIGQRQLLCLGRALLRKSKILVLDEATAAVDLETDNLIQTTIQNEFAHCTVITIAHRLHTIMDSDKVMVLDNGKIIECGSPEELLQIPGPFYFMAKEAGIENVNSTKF

EC50: 20 µM
Structure (SMILES): CN(C)C(=O)CCSC(SCCC(=O)O)c1cccc(/C=C/c2ccc3ccc(Cl)cc3n2)c1 (stereo not shown) [MK-571]
